Assay results published in patent US10238670B2, “9-aminomethyl minocycline compounds and methods of use thereof in urinary tract infection (UTI) treatment” (Paratek Pharmaceuticals, Inc., priority 2016, dated 2019).

Experiments:
baseline pathogen = assay: Phase 1b study, per-pathogen microbiological response at PTE (urine culture); type: in vivo, human
Method: At screening and at all study visits (i.e., screening, daily while on treatment, and at EOT and PTE visits) a microbiologic evaluation of the infection under study was performed. A clean-catch midstream urine sample was collected and immediately sent to the local microbiology laboratory for microscopic examination and culture. Quantitative urine culture by appropriate methods was performed using a calibrated loop that would identify bacteria at a lower limit of 1×10^3 CFU/mL. In general, bacteria identified at 1×10^5 colony forming units (CFU)/mL or greater were considered a bacterial pathogen (probability of true pathogen was greater than probability of contamination). In addition, if the same bacteria was isolated in the blood and in the urine at any CFU count it was considered a pathogen. Culture results were to include identification of all pathogens to the level of genus and species. In vitro antimicrobial susceptibility testing of the isolates to antimicrobial drugs that may be used to treat UTIs was performed locally using a standard method chosen by the laboratory. The microbiological outcome was determined programmatically based on the local and Central Laboratory microbiological analyses. For an isolate to be considered a pathogen at screening, it must presented in the urine sample at ≥10^5 CFU/mL or the pathogen should be isolated from both the blood and urine at any CFU count. Microbiological outcome was defined as: • Eradication: […] The pathogens isolated at baseline were presented by genus and species by treatment group. The number and percentage of subjects with a by-subject and by-pathogen eradication, persistence and indeterminate microbiologic response were presented. A listing of all baseline and post-baseline isolates was provided.

S. marcescens = assay: In vitro MIC, 2010 surveillance isolates; type: cell-based; settings: N=424
Acinetobacter = assay: In vitro MIC, 2010 surveillance isolates; type: cell-based; settings: N=952
[1] = test system: E. coli (ATCC 25922) biofilm; assay: MBEC assay, planktonic adhesion to 6, 12, 24 hour biofilms under sub-MIC treatment; type: cell-based, Escherichia coli
Method: The MBEC™ assay (formerly the Calgary biofilm device; Innovotech Inc., Canada) is a well-established high throughput assay for assessment of anti-biofilm activity of test agents in a 96-well format. Within this assay, the biofilm is formed on the plastic pegs of the plate lid. After inoculated media is introduced to the wells of the 96-well plate, the plate is placed in a shaking incubator to generate the necessary shear force for biofilm growth on the pegs. Following a suitable incubation time, the individual biofilms can be treated with varying concentrations of test agents (challenge plate). After the desired treatment time, the remaining biofilm-associated bacteria are retrieved from the pegs through sonication (recovery plate). Serial dilution and/or plating of the recovered bacterial suspension allow for the quantification of test agents' efficacy against pre-formed biofilms. Additionally, readout of the challenge plate from the biofilm treatment can be used to determine MIC values of test agents. The absence of growth in the recovery plate indicates complete biofilm eradication and the lowest concentration of a test agent that achieves this is designated as the minimum biofilm eradication concentration (MBEC). […]

[2] = test system: E. coli (ATCC 25922) biofilm; assay: MBEC assay, inhibition of biofilm formation; type: cell-based, Escherichia coli
Method: The MBEC™ assay (formerly the Calgary biofilm device; Innovotech Inc., Canada) is a well-established high throughput assay for assessment of anti-biofilm activity of test agents in a 96-well format. Within this assay, the biofilm is formed on the plastic pegs of the plate lid. After inoculated media is introduced to the wells of the 96-well plate, the plate is placed in a shaking incubator to generate the necessary shear force for biofilm growth on the pegs. Following a suitable incubation time, the individual biofilms can be treated with varying concentrations of test agents (challenge plate). After the desired treatment time, the remaining biofilm-associated bacteria are retrieved from the pegs through sonication (recovery plate). Serial dilution and/or plating of the recovered bacterial suspension allow for the quantification of test agents' efficacy against pre-formed biofilms. Additionally, readout of the challenge plate from the biofilm treatment can be used to determine MIC values of test agents. The absence of growth in the recovery plate indicates complete biofilm eradication and the lowest concentration of a test agent that achieves this is designated as the minimum biofilm eradication concentration (MBEC). The MBEC™ assay is also amenable to assess potential synergistic effects of combination treatments, as well as efficacy of test agents in inhibiting or inducing biofilm formation.
The MBEC™ plates were inoculated with either 10^5 CFU/mL (low inoculum) or 10^7 CFU/mL (high inoculum) of stationary phase E. coli (ATCC 25922) with simultaneous addition of antibiotics to evaluate the progression of biofilm formation under antibiotic challenge. After 24 hour incubation, the bacteria were recovered and enumerated (as above). FIG. 6. […] FIG. 7.

[3] = Phase 1 studies, plasma pharmacokinetics (IV and oral)
[4] = Enterococcus faecalis, IV_PO300
[5] = Overall Gram Negative Pathogens, IV_PO300
[6] = Overall Gram Negative Pathogens, PO300
[7] = Overall Gram Negative Pathogens, PO450
[8] = Overall Gram Positive Pathogens, IV_PO300
[9] = Overall Gram Positive Pathogens, PO300
[10] = Overall Gram Positive Pathogens, PO450
[11] = Staphylococcus saprophyticus, PO450
[12] = Streptococcus agalactiae - (Group B), PO300

## CN(C)c1cc(CNCC(C)(C)C)c(O)c2c1C[C@H]1C[C@H]3[C@H](N(C)C)C(O)=C(C(N)=O)C(=O)[C@@]3(O)C(O)=C1C2=O [Compound 1, 9-[(2,2-dimethyl-propylamino)-methyl]-minocycline]
Baseline pathogen; Aerococcus urinae, PO450
  Eradication: 1 (100.0) n (%)
  Indeterminate: 0 (0.0) n (%)
  Persistence: 0 (0.0) n (%)
Baseline pathogen; [4]
  Eradication: 1 (100.0) n (%)
  Indeterminate: 0 (0.0) n (%)
  Persistence: 0 (0.0) n (%)
Baseline pathogen; Escherichia coli, IV_PO300
  Eradication: 3 (100.0) n (%)
  Indeterminate: 0 (0.0) n (%)
  Persistence: 0 (0.0) n (%)
Baseline pathogen; Escherichia coli, PO300
  Eradication: 2 (66.7) n (%)
  Indeterminate: 0 (0.0) n (%)
  Persistence: 1 (33.3) n (%)
Baseline pathogen; Escherichia coli, PO450
  Eradication: 2 (50.0) n (%)
  Indeterminate: 0 (0.0) n (%)
  Persistence: 2 (50.0) n (%)
Baseline pathogen; Klebsiella pneumoniae, PO300
  Eradication: 1 (100.0) n (%)
  Indeterminate: 0 (0.0) n (%)
  Persistence: 0 (0.0) n (%)
Baseline pathogen; Klebsiella pneumoniae, PO450
  Eradication: 1 (50.0) n (%)
  Indeterminate: 0 (0.0) n (%)
  Persistence: 1 (50.0) n (%)
Baseline pathogen; [5]
  Eradication: 6 (100.0) n (%)
  Indeterminate: 0 (0.0) n (%)
  Persistence: 0 (0.0) n (%)
Baseline pathogen; [6]
  Eradication: 4 (100.0) n (%)
  Indeterminate: 0 (0.0) n (%)
  Persistence: 1 (25.0) n (%)
Baseline pathogen; [7]
  Eradication: 3 (50.0) n (%)
  Indeterminate: 0 (0.0) n (%)
  Persistence: 3 (50.0) n (%)
Baseline pathogen; [8]
  Eradication: 1 (100.0) n (%)
  Indeterminate: 0 (0.0) n (%)
  Persistence: 0 (0.0) n (%)
Baseline pathogen; [9]
  Eradication: 1 (100.0) n (%)
  Indeterminate: 0 (0.0) n (%)
  Persistence: 0 (0.0) n (%)
Baseline pathogen; [10]
  Eradication: 2 (100.0) n (%)
  Indeterminate: 0 (0.0) n (%)
  Persistence: 0 (0.0) n (%)
Baseline pathogen; Proteus mirabilis, IV_PO300
  Eradication: 3 (100.0) n (%)
  Indeterminate: 0 (0.0) n (%)
  Persistence: 0 (0.0) n (%)
Baseline pathogen; Proteus mirabilis, PO300
  Eradication: 1 (100.0) n (%)
  Indeterminate: 0 (0.0) n (%)
  Persistence: 0 (0.0) n (%)
Baseline pathogen; [11]
  Eradication: 1 (100.0) n (%)
  Indeterminate: 0 (0.0) n (%)
  Persistence: 0 (0.0) n (%)
Baseline pathogen; [12]
  Eradication: 1 (100.0) n (%)
  Indeterminate: 0 (0.0) n (%)
  Persistence: 0 (0.0) n (%)
S. marcescens; MIC 1 μg/ml
  Cumulative % Inhibition at MIC: 0.7%
S. marcescens; MIC 2 μg/ml
  Cumulative % Inhibition at MIC: 20.3%
S. marcescens; MIC 4 μg/ml
  Cumulative % Inhibition at MIC: 76.2%
S. marcescens; MIC 8 μg/ml
  Cumulative % Inhibition at MIC: 91.0%
S. marcescens; MIC 16 μg/ml
  Cumulative % Inhibition at MIC: 93.6%
S. marcescens; MIC ≤0.5 μg/ml, listed as head image P00017
  Cumulative % Inhibition at MIC: 0%
S. marcescens; MIC ≥32 μg/ml
  Cumulative % Inhibition at MIC: 100%
Acinetobacter; MIC 1 μg/ml
  Cumulative % Inhibition at MIC: 44.1%
Acinetobacter; MIC 2 μg/ml
  Cumulative % Inhibition at MIC: 73.1%
Acinetobacter; MIC 4 μg/ml
  Cumulative % Inhibition at MIC: 93.5%
Acinetobacter; MIC 8 μg/ml
  Cumulative % Inhibition at MIC: 98.5%
Acinetobacter; MIC 16 μg/ml
  Cumulative % Inhibition at MIC: 99.5%
Acinetobacter; MIC ≤0.5 μg/ml, listed as head image P00018
  Cumulative % Inhibition at MIC: 31.1%
Acinetobacter; MIC ≥32 μg/ml
  Cumulative % Inhibition at MIC: 100%
[1]; 24 hour biofilms, 4% of the MIC (0.046 μg/mL), planktonic bacteria present
  reduction in total biofilm-associated bacteria relative to controls: reduced by about a log
[1]; sub-MIC concentrations, 6, 12, 24 hour biofilms
  adhesion of planktonic bacteria to biofilms: do not promote additional adhesion of planktonic bacteria
[2]; 0.183 μg/mL (approx. 15% of MIC)
  less bioburden of biofilm compared to control: approx. 2 log units
[2]; 0.743 μg/mL, 24 hour incubation
  lower total bioburden of biofilm vs controls: 3-4 log units
[2]; 0.74 p g/mL, high and low inoculum conditions, respectively
  reduction of mean biofilm formation compared to controls: 3 to 4 log units
[2]; all doses above the MIC
  inhibition of biofilm formation: strongly inhibits biofilm formation
[2]; sub-MIC doses
  induction of biofilm formation: fail to induce biofilm formation
[3]; 300 mg dose of tablet
  bioequivalence of tablet and IV dose: bioequivalent to a 100 mg IV dose
[3]; human, in vivo
  half-life: ~18 h
[3]; human, in vivo, iv, 100 mg
  Cmax: ~1800 ng/mL
[3]; steady state vs single dose
  exposure based on plasma concentrations, higher at steady-state than after a single dose: approximately 50%
  steady state AUC (IV and oral) and Cmax (oral) relative to single IV or oral dose: approximately 1.5 ×
